Data taken from patent US20230279025A1, “KRAS G12D INHIBITORS” (Mirati Therapeutics, Inc., priority 2020, published 2023).
Counter-ions that a name gives are not always drawn.

Biological target: KRas G12D (Homo sapiens (Human), UniProt P01116, G12D)
Test: KRas G12D Binding Assay (TR-FRET displacement of Cy5 labelled tracer)
Conditions: GDP-loaded KRAS G12D (amino acids 1:169), 60 minute incubation at 22° C.
Procedure: After a 60 minute incubation at 22° C., the reaction was measured using a PerkinElmer EnVision multimode plate reader via TR-FRET dual wavelength detection, and the percent of control (POC) calculated using a ratiometric emission factor. […] The POC values were fit to a 4-parameter logistic curve and the IC50 value was determined as the concentration where the curve crosses 50 POC.
ND stands for “not determined.”

KRas G12D, sequence (P01116 other isoform, or with tags, fused parts or gaps G12D): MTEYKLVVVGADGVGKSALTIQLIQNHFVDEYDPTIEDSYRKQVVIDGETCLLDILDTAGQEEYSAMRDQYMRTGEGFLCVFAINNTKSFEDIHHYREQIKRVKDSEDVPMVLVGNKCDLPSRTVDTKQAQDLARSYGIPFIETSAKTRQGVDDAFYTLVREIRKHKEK

| SMILES | IC50 |
| --- | --- |
| Fc1ccccc1-c1ncc2c(N3C[C@H]4CC[C@@H](C3)N4)nc(OCC34CCCN3CCC4)nc2c1F [Example 264, 4-((1R,5S)-3,8-diazabicyclo[3.2.1]octan-3-yl)-8-fluoro-7-(2-fluorophenyl)-2-((hexahydro-1H-pyrrolizin-7a-yl)methoxy)pyrido[4,3-d]pyrimidine] | 4700 nM |
| CCc1c(F)ccc2cccc(-c3ncc4c(N5C[C@H]6CC[C@@H](C5)N6)nc(OCC56CCCN5CCC6)nc4c3F)c12 [Example 426, 4-((1R,5S)-3,8-diazabicyclo[3.2.1]octan-3-yl)-7-(8-ethyl-7-fluoronaphthalen-1-yl)-8-fluoro-2-((hexahydro-1H-pyrrolizin-7a-yl)methoxy)pyrido[4,3-d]pyrimidine] | 0.9 nM |
| C#Cc1cccc2cc(O)cc(-c3ncc4c(N5C[C@H]6CC[C@@H](C5)N6)nc(OC[C@@]56CCCN5C[C@H](F)C6)nc4c3F)c12 [Example 243] | 0.4 nM |
| O[C@H]1CN2CCC[C@@]2(COc2nc(N3CC4CCC(C3)N4)c3cnc(-c4cccc5cccc(Cl)c45)c(F)c3n2)C1 [Example 223, 7a-(((4-((1R,5S)-3,8-diazabicyclo[3.2.1]octan-3-yl)-7-(8-chloronaphthalen-1-yl)-8-fluoropyrido[4,3-d]pyrimidin-2-yl)oxy)methyl)hexahydro-1H-pyrrolizin-2-ol bis-2,2,2-trifluoroacetate] | 7.1 nM |
| Cn1cnnc1CCOc1nc(N2C[C@H]3CC[C@@H](C2)N3)c2cnc(-c3cccc4cccc(Cl)c34)c(F)c2n1 [Example 154, 4-((1R,5S)-3,8-diazabicyclo[3.2.1]octan-3-yl)-7-(8-chloronaphthalen-1-yl)-8-fluoro-2-(2-(4-methyl-4H-1,2,4-triazol-3-yl)ethoxy)pyrido[4,3-d]pyrimidine] | 6530 nM |
| Cc1cc2[nH]ccc2c(-c2ncc3c(N4C[C@H]5CC[C@@H](C4)N5)nc(OCC45CCCN4CCC5)nc3c2F)c1C [Example 250, 4-((1R,5S)-3,8-diazabicyclo[3.2.1]octan-3-yl)-7-(5,6-dimethyl-1H-indol-4-yl)-8-fluoro-2-((hexahydro-1H-pyrrolizin-7a-yl)methoxy)pyrido[4,3-d]pyrimidine] | 28.2 nM |
| Oc1cc(-c2ncc3c(N4C[C@H]5CC[C@@H](C4)N5)nc(OCC45CCCN4C(CF)CC5)nc3c2F)c2c(Cl)cccc2c1 (stereo partly drawn) [Example 400, 4-(4-((1R,5S)-3,8-diazabicyclo[3.2.1]octan-3-yl)-8-fluoro-2-((3-(fluoromethyl)tetrahydro-1H-pyrrolizin-7a(5H)-yl)methoxy)pyrido[4,3-d]pyrimidin-7-yl)-5-chloronaphthalen-2-ol] | 4.2 nM |
| C[C@H]1CN2CCC[C@@]2(COc2nc(N3CC4CCC(C3)N4)c3cnc(-c4cccc5cccc(Cl)c45)c(F)c3n2)C1 (stereo in doubt) [Example 227, 4-((1R,5S)-3,8-diazabicyclo[3.2.1]octan-3-yl)-7-(8-chloronaphthalen-1-yl)-8-fluoro-2-((2-methyltetrahydro-1H-pyrrolizin-7a(5H)-yl)methoxy)pyrido[4,3-d]pyrimidine bis-hydrochloride] | 6.4 nM |
| COC(=O)NC[C@H]1CC[C@@]2(COc3nc(N4CC5CCC(C4)N5)c4cnc(-c5cccc6cccc(Cl)c56)c(F)c4n3)CCCN12 [Example 411, methyl ((7a-(((4-(3,8-diazabicyclo[3.2.1]octan-3-yl)-7-(8-chloronaphthalen-1-yl)-8-fluoropyrido[4,3-d]pyrimidin-2-yl)oxy)methyl)hexahydro-1H-pyrrolizin-3-yl)methyl)carbamate] | 17 nM |
| CNC(=O)OC[C@H]1CC[C@@]2(COc3nc(N4CC5CCC(C4)N5)c4cnc(-c5cccc6cccc(Cl)c56)c(F)c4n3)CCCN12 [Example 408, (7a-(((4-(3,8-diazabicyclo[3.2.1]octan-3-yl)-7-(8-chloronaphthalen-1-yl)-8-fluoropyrido[4,3-d]pyrimidin-2-yl)oxy)methyl)hexahydro-1H-pyrrolizin-3-yl)methyl methylcarbamate] | 3.1 nM |
| COCc1cccc2cccc(-c3ncc4c(N5C[C@H]6CC[C@@H](C5)N6)nc(OC[C@@]56CCCN5C[C@H](F)C6)nc4c3F)c12 [Example 423, 4-((1R,5S)-3,8-diazabicyclo[3.2.1]octan-3-yl)-8-fluoro-2-(((2R,7aS)-2-fluorohexahydro-1H-pyrrolizin-7a-yl)methoxy)-7-(8-(methoxymethyl)naphthalen-1-yl)pyrido[4,3-d]pyrimidine] | 238 nM |
| C[C@H](N)COc1nc(N2CC3CCC(C2)N3)c2cnc(-c3cccc4cccc(Cl)c34)c(F)c2n1 [Example 374, (S)-1-((4-((1R,5S)-3,8-diazabicyclo[3.2.1]octan-3-yl)-7-(8-chloronaphthalen-1-yl)-8-fluoropyrido[4,3-d]pyrimidin-2-yl)oxy)propan-2-amine bis(2,2,2-trifluoroacetate)] | 348 nM |
| Cc1ccc2[nH]ncc2c1-c1ncc2c(N3C[C@H]4CC[C@@H](C3)N4)nc(OCC34CCCN3CCC4)nc2c1F [Example 332, 4-((1R,5S)-3,8-diazabicyclo[3.2.1]octan-3-yl)-8-fluoro-7-(5-methyl-1H-indazol-4-yl)-2-((tetrahydro-1H-pyrrolizin-7a(5H)-yl)methoxy)pyrido[4,3-d]pyrimidine] | 164 nM |
| NCCOc1nc(N2C[C@H]3CC[C@@H](C2)N3)c2cnc(-c3cccc4cccc(Cl)c34)c(F)c2n1 [Example 261, 2-((4-((1R,5S)-3,8-diazabicyclo[3.2.1]octan-3-yl)-7-(8-chloronaphthalen-1-yl)-8-fluoropyrido[4,3-d]pyrimidin-2-yl)oxy)ethanamine] | 8300 nM |
| OCCc1cccc2cccc(-c3ncc4c(N5C[C@H]6CC[C@@H](C5)N6)nc(OCC56CCCN5CCC6)nc4c3F)c12 [Example 239, 2-(8-(4-((1R,5S)-3,8-diazabicyclo[3.2.1]octan-3-yl)-8-fluoro-2-((tetrahydro-1H-pyrrolizin-7a(5H)-yl)methoxy)pyrido[4,3-d]pyrimidin-7-yl)naphthalen-1-yl)ethan-1-ol] | 2 nM |
| CN1CCC(F)(COc2nc(N3C[C@H]4CC[C@@H](C3)N4)c3cnc(-c4cccc5cccc(Cl)c45)c(F)c3n2)CC1 [Example 398, 4-((1R,5S)-3,8-diazabicyclo[3.2.1]octan-3-yl)-7-(8-chloronaphthalen-1-yl)-8-fluoro-2-((4-fluoro-1-methylpiperidin-4-yl)methoxy)pyrido[4,3-d]pyrimidine] | 593 nM |
| CC(C)c1c(F)cccc1-c1ncc2c(N3C[C@H]4CC[C@@H](C3)N4)nc(OCC34CCCN3CCC4)nc2c1F [Example 299, 4-((1R,5S)-3,8-diazabicyclo[3.2.1]octan-3-yl)-8-fluoro-7-(3-fluoro-2-isopropylphenyl)-2-((hexahydro-1H-pyrrolizin-7a-yl)methoxy)pyrido[4,3-d]pyrimidine] | 132 nM |
| Fc1c(-c2cccc3scnc23)ncc2c(N3C[C@H]4CC[C@@H](C3)N4)nc(OCC34CCCN3CCC4)nc12 [Example 454, 4-(4-((1R,5S)-3,8-diazabicyclo[3.2.1]octan-3-yl)-8-fluoro-2-((hexahydro-1H-pyrrolizin-7a-yl)methoxy)pyrido[4,3-d]pyrimidin-7-yl)benzo[d]thiazole] | 295 nM |
| CN1CC[C@@H](COc2nc(N3C[C@H]4CC[C@@H](C3)N4)c3cnc(-c4cccc5cccc(Cl)c45)c(F)c3n2)C1 [Example 356, 4-((1R,5S)-3,8-diazabicyclo[3.2.1]octan-3-yl)-7-(8-chloronaphthalen-1-yl)-8-fluoro-2-(((R)-1-methylpyrrolidin-3-yl)methoxy)pyrido[4,3-d]pyrimidine] | 87.2 nM |
| C[C@@H]1C[C@@H]1c1ccccc1-c1ncc2c(N3C[C@H]4CC[C@@H](C3)N4)nc(OCC34CCCN3CCC4)nc2c1F [Example 286, 4-((1R,5S)-3,8-diazabicyclo[3.2.1]octan-3-yl)-8-fluoro-2-((hexahydro-1H-pyrrolizin-7a-yl)methoxy)-7-(2-((S,2R)-2-methylcyclopropyl)phenyl)pyrido[4,3-d]pyrimidine] | 17.2 nM |
| Cc1ccc2sc(N)nc2c1-c1ncc2c(N3C[C@H]4CC[C@@H](C3)N4)nc(OCC34CCCN3CCC4)nc2c1F [Example 458, 4-(4-((1R,5S)-3,8-diazabicyclo[3.2.1]octan-3-yl)-8-fluoro-2-((hexahydro-1H-pyrrolizin-7a-yl)methoxy)pyrido[4,3-d]pyrimidin-7-yl)-5-methylbenzo[d]thiazol-2-amine] | 143 nM |
| CN(C)Cc1ccc(COCCNC(=O)O[C@@H]2C[C@@H](COc3nc(N4C[C@H]5CC[C@@H](C4)N5)c4cnc(-c5cccc6cccc(Cl)c56)c(F)c4n3)N(C)C2)cc1 [Example 308, (3R,5S)-5-(((4-((1R,5S)-3,8-diazabicyclo[3.2.1]octan-3-yl)-7-(8-chloronaphthalen-1-yl)-8-fluoropyrido[4,3-d]pyrimidin-2-yl)oxy)methyl)-1-methylpyrrolidin-3-yl (2-((4-((dimethylamino)methyl)benzyl)oxy)ethyl)carbamate] | 117 nM |
| Oc1ccc(C(F)(F)F)c(-c2ncc3c(N4C[C@H]5CC[C@@H](C4)N5)nc(OCC45CCCN4CCC5)nc3c2F)c1 [Example 373, 3-(4-((1R,5S)-3,8-diazabicyclo[3.2.1]octan-3-yl)-8-fluoro-2-((tetrahydro-1H-pyrrolizin-7a(5H)-yl)methoxy)pyrido[4,3-d]pyrimidin-7-yl)-4-(trifluoromethyl)phenol] | 1.6 nM |
| OCc1nccn1CCOc1nc(N2CC3CCC(C2)N3)c2cnc(-c3cccc4cccc(Cl)c34)c(F)c2n1 [Example 171, (1-(2-((4-(3,8-diazabicyclo[3.2.1]octan-3-yl)-7-(8-chloronaphthalen-1-yl)-8-fluoropyrido[4,3-d]pyrimidin-2-yl)oxy)ethyl)-1H-imidazol-2-yl)methanol] | 757 nM |
| Fc1c(-c2cccc(Cl)c2C2CC2)ncc2c(N3C[C@H]4CC[C@@H](C3)N4)nc(OCC34CCCN3CCC4)nc12 [Example 322, 4-((1R,5S)-3,8-diazabicyclo[3.2.1]octan-3-yl)-7-(3-chloro-2-cyclopropylphenyl)-8-fluoro-2-((tetrahydro-1H-pyrrolizin-7a(5H)-yl)methoxy)pyrido[4,3-d]pyrimidine] | 4.9 nM |
